Reference: patent publication US12391647B2, “Benzamide compound and preparation method, use, and pharmaceutical composition thereof” (INSTITUTE OF MATERIA MEDICA, CHINESE ACADEMY OF MEDICAL …, priority 2018, dated 2025)
Marks after values point to notes of the source that are not given here. Blank lines part the entries; values can stand above or below the molecule they belong to.

Experiments:
[1] = test system: xenograft tumor of human prostate cancer DU145; experiment: Xenotransplantation efficacy study in nude mice; assay type: in vivo; settings: for Tumor growth inhibition: oral, DU145 xenograft; for inhibitory effect on the growth of xenograft tumor: subcutaneous DU145 xenograft
Experimental: Tumor cells of human prostate cancer DU145 were collected under aseptic conditions, and the cell density was adjusted to 1×10^6 cells/mL with sterilized normal saline, and then 0.2 mL of which was inoculated subcutaneously in the axillary back of nude mice. When the tumor grew to 1 cm in diameter, it was taken out under aseptic conditions, cut into tumor blocks with the size of 1 mm×1 mm, and inoculated subcutaneously in the axillary back of nude mice. Two weeks later, after the tumor grew to 100˜300 mm^3, the animals were randomly divided into groups and began to be administered (recorded as day 0). The compound to be tested is administered orally. The animals were weighed twice a week and the length and width of tumor were measured with vernier caliper. After the experiment, the nude mice were dislocated and killed, and the tumor tissues were stripped, weighed and photographed. Finally, the tumor inhibition rate was calculated, and the anti-tumor effect was evaluated by the tumor inhibition rate. The results are shown in tables 3 and 4 and FIGS. 2 and 3.
The tumor volume is calculated according to the following formula:
Tumor volume=(a×b^2)/2, where a and b represent the length and width of tumor respectively.
The tumor growth inhibition percentage is calculated according to the following formula: tumor growth inhibition (%)=(1−T/C)×100, T is the tumor volume of group of the compound to be tested, and C is the tumor volume of the solvent control group.

STAT3 transcription = experiment: STAT3 specific luciferase double reporter gene experiment in DU145 cells; assay type: cell-based, human; settings: for STAT3 transcription inhibition activity: DU145, STAT3 specific luciferase double reporter; for IC50: Homo sapiens, DU-145, DU145 with high STAT3 expression, 24 h
Experimental: The luciferase plasmids STAT3-TA-Luc and pGMLR-TK were transiently co-transfected into DU145 cells by Lipofectamine 3000. After staying overnight, different concentrations of compounds to be tested were added and cultured for 24 hours. The supernatant was discarded, and the residue was washed twice with PBS, and then 20 μL of lysis solution was added to shake and lyse for 5 min. The supernatant was transferred to a 96-well Costar whiteplate, and 70 μL of Dual-Glo luciferase substrate solution was added, and the relative fluorescence intensity of firefly luciferase was detected, and then 70 μL of Stop-Glo substrate solution was added, and the relative fluorescence intensity of sea kidney luciferase was detected, the normalized value was obtained, and the inhibition rate and IC50 value were calculated.

p-STAT3 (Tyr705) = experiment: Western blotting of p-STAT3 expression in DU145 cells; assay type: cell-based, human
Experimental: DU145 cells treated for 16 h with different concentrations of examples 12, 23, 33 and 34 and DU145 cells in control group were collected and washed twice with pre-cooled PBS. After appropriate amount of RIPA lysate (50 mM Tris-HCl, 1 mM EDTA, 1% Triton X-100, 150 mM NaCl, 0.1% SDS, 1 mM NaF, Na3VO4, protease inhibitor, pH 7.4) was added to lyse for 1 h on ice, the reaction mixture was centrifuged at 4° C., 12,000 rpm for 20 min, and then the supernatant was collected for protein quantification and boiled for denaturation. Equal amount of protein was taken for 10% SDS-PAGE electrophoresis. The specific antibodies of p-STAT3 (Tyr705) and STAT3 were used as primary antibody, which was incubated overnight at 4° C. The corresponding HRP-labeled secondary antibody was used, incubated at room temperature for 2 h, and washed. ECL chemiluminescence substrate reaction solution was added to develop in gel imaging system, and the image was saved. (3-actin was used as internal reference.

[2] = test system: human prostate cancer cell DU145; experiment: MTT assay, survival rate of tumor cells (antiproliferative activity); assay type: cell-based; settings: DU-145, 72 h, read-out: Antiproliferative activity against human prostate cancer cell DU145, IC50
Experimental: DU145 cells (human prostate cancer cells) in logarithmic growth phase were digested with 0.25% trypsin-EDTA to prepare single cell suspension, which was inoculated into 96-well plate overnight according to 1500 cells/well/100 μL, and fresh medium containing different concentrations of compounds to be tested and corresponding solvent control was added, and 100 μL (DMSO final concentration <0.1%) was added to each well, and the 96-well plate was further cultured at 37° C. for 72 h. 20 μL of freshly prepared PBS solution containing 5 mg/mL MTT was added to each well, and the 96-well plate was further cultured for 4 h. After the supernatant was discarded, 180 μL of DMSO was added to each well to dissolve the MTT formazan precipitate. After the 96-well plate was shaked and mixed by a micro oscillator, the optical density (OD) at the detection wavelength of 570 nm was measured. With DMSO-treated tumor cells as the control group, the inhibition rate on the growth of tumor cells of the compound to be tested was calculated from the following formula, and the IC50 was calculated according to the median-effect equation. Inhibition rate (%)=(average OD value of control group-average OD value of dosing group)/average OD value of control group×100%

IC50 (STAT3 transcription): 7000 ± 1300 nM
Structure (SMILES): Cc1ccc(S(=O)(=O)Nc2cc(C(=O)NCc3cccnc3)ccc2C)cc1 [Example 1, 4-methyl-3-((4-methylphenyl)sulfonamido)-N-(pyridin-3-ylmethyl) benzamide]
Tumor growth inhibition ([1]; 10 mg/kg × 7 times): 58.8*** %
Tumor growth inhibition ([1]; 20 mg/kg × 7 times): 62.7*** %
Tumor growth inhibition ([1]; 40 mg/kg × 7 times): 73.5*** %
inhibitory effect on the growth of xenograft tumor [1]: significant inhibitory effects
STAT3 transcription inhibition activity (STAT3 transcription): obvious STAT3 transcription inhibition activity
inhibitory activity on STAT3 phosphorylation (p-STAT3 (Tyr705); DU145, 1 μM concentration): obvious inhibitory activity
IC50 [2]: 120 ± 30 nM

IC50 (STAT3 transcription): 1000 nM
Structure (SMILES): CCc1ccc(S(=O)(=O)Nc2cc(C(=O)NCc3cccnc3)ccc2C)cc1 [Example 12, 3-((4-ethylphenyl)sulfonamido)-4-methyl-N-(pyridin-3-ylmethyl)benzamide]
Tumor growth inhibition ([1]; 20 mg/kg × 14 times): 40.4%
Tumor growth inhibition ([1]; 40 mg/kg × 11 times): 79.7*** %
inhibitory effect on the growth of xenograft tumor [1]: significant inhibitory effects
STAT3 transcription inhibition activity (STAT3 transcription): obvious STAT3 transcription inhibition activity
inhibitory activity on STAT3 phosphorylation (p-STAT3 (Tyr705); DU145, 0.5 μM concentration): obvious inhibitory activity
IC50 [2]: 40 ± 10 nM

IC50 (STAT3 transcription): 500 ± 120 nM
Structure (SMILES): Cc1ccc(S(=O)(=O)Nc2cc(C(=O)NCc3ccc(C)nc3)ccc2C)cc1 [Example 33, 4-methyl-3-((4-methylphenyl)sulfonamido)-N-((6-methylpyridin-3-yl)methyl)benzamide]
Tumor growth inhibition ([1]; 20 mg/kg × 6 times): 63.0** %
Tumor growth inhibition ([1]; 40 mg/kg × 5 times): 80.0** %
inhibitory effect on the growth of xenograft tumor [1]: significant inhibitory effects
STAT3 transcription inhibition activity (STAT3 transcription): obvious STAT3 transcription inhibition activity
inhibitory activity on STAT3 phosphorylation (p-STAT3 (Tyr705); DU145, 0.1 μM concentration): obvious inhibitory activity
IC50 [2]: 8 ± 1 nM
